Patent EP2177216A1, “Use of dianhydrohexite mononitrate derivatives as healing agents” (LACER, S.A., priority 2008, dated 2010)

Test system: full thickness wound (2 x 2 cm)
Assay: Wound healing (wound contraction and re-epithelialization) after topical hydrogel application to a full thickness skin wound in rats
Format: in vivo, Male Wistar rats
Protocol: Male Wistar rats provided by Janvier, Espana weighing 150 - 200 g were housed in our animal facilities in groups of 3 animals, being each group in a conventional animal facility where the environmental temperature and relative humidity are monitored and controlled. The lighting schedule in the animal facility is 12 hours light and 12 hours dark. The rats were used after an acclimatization period of five days. After a week quarantine period animals were dosed.
The solutions were allowed to attain dissolution equilibrium for a period of 8 h. The appropriate amount of compound of formula (I) was added to the hydrogel solution for homogenization. […] The hydrogels were used immediately after preparation.
Rats were anesthetized with sodium pentobarbital (40 mg/kg, i.p.) before treatments application to keep the animal calm to allow absorption of the products.
The dorsal surface was shaved and a full thickness wound (2 x 2 cm) was made on the back of each rat by removing the skin (epidermis and dermis) and exposing paniculus carnosus.
Groups of 5 rats for treatment were used, and 0.5 g of hydrogel was topically applied in a wound (2 x 2 cm) on the back of each rat.
Treatments were applied from the first day until fourth day after wounding. […] From the fifth day post-wounding, lesions were left uncovered in all groups. The animals were housed in individual cages with free access to food and water. […]
The area of the wounds (cm^2) and % re-ephitelización were estimated by the difference between the total lesion area and the wound area still uncovered.
The efficacy of treatments was evaluated by measuring wound area and percentage of re-epithelialization vs total wound area.

[1] = day 5, 0.5 g of hydrogel topically applied from first until fourth day after wounding, groups of 5 rats
[2] = day 8, 0.5 g of hydrogel topically applied from first until fourth day after wounding, initial wound 2 x 2 cm
[3] = versus control hydrogel, from wound area at day 8

Row | SMILES | % Re-epithelialization (day 5) [1] [%] | Wound area (cm^2) (day 8) [2] | % Wound reduction vs control [3] [%] | % Re-epithelialization (day 5) (rat, in vivo) [%] | % Wound reduction vs control (rat, in vivo) [%] | Wound area (cm^2) (day 8) (rat, in vivo)
1 | CC(=O)S[C@H]1CO[C@H]2[C@@H]1OC[C@H]2O[N+](=O)[O-] [Compound 1, 2-acetylthioisosorbide 5-mononitrate] | 100 | 1.2 | 66 |  |  | 
2 | CC(=O)S[C@@H]1CO[C@H]2[C@@H]1OC[C@H]2O[N+](=O)[O-] [Compound 2, 2-acetylthioisomanide 5-mononitrate] | 100 | 1.4 | 60 |  |  | 
3 | O=[N+]([O-])O[C@@H]1CO[C@H]2[C@@H]1OC[C@@H]2SS[C@H]1CO[C@H]2[C@@H]1OC[C@H]2O[N+](=O)[O-] [Compound 3, 5'5'-dinitrato-2,2'ditioisosorbide] | 100 | 1.7 | 51 |  |  | 
4 | CS[C@H]1CO[C@H]2[C@@H]1OC[C@H]2O[N+](=O)[O-] [Compound 4, 2-Methylthioisosorbide 5-mononitrate] | 100 | 1.1 | 69 |  |  | 
5 | CS(=O)(=O)[C@H]1CO[C@H]2[C@@H]1OC[C@H]2O[N+](=O)[O-] [Compound 5, 2-Methylsulfonylisosorbide 5-mononitrate] | 90 | 1.7 | 51 |  |  | 
6 | CCC[S+]([O-])[C@H]1CO[C@H]2[C@@H]1OC[C@H]2O[N+](=O)[O-] (stereo partly drawn) [Compound 6, 2-[(R,S)-propylsulfinyl]isosorbide 5-mononitrate] | 90 | 1.1 | 69 |  |  | 
7 | O=[N+]([O-])O[C@@H]1CO[C@H]2[C@@H]1OC[C@@H]2O [Compound 7, Isosorbide 5-mononitrate, reference compound] |  |  |  | 60 | 60 | 1.4
